According to patent publication US20240425478A1, “CYCLOPENTYLPYRAZOLE CDK2 INHIBITORS” (Genentech, Inc., priority 2021, published 2024):
Like-named read-outs stand apart in the source and are kept apart here.

Assays:
[1] = biological target: T1, Cyclin Dependent Kinase 1/Cyclin A2 (CDK1-cycA2) (Homo sapiens, UniProt P06493); test: CDK1-cycA2 TR-FRET (Lance) enzyme assay; type: biochemical; conditions: Table O, enzymatic assay
T1 construct: purchased ProQinase 0134-0054-1
Outline: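 TR-FRET (Lance) detection of phospho-4E-BP1 with a europium-labelled antibody after EDTA quench (15 mM final); signal taken as acceptor/donor ratio. Enzyme and compound were pre-incubated 30 min in HEPES pH 7.5 buffer with MgCl2, TCEP, BGG and Brij 35. Ki derived by Morrison fit.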

[2] = biological target: T2, Cyclin Dependent Kinase 2/Cyclin E1 (CDK2-cycE1) (Homo sapiens, UniProt P24941); test: CDK2-cycE1 TR-FRET (LANCE) enzyme assay; type: biochemical; conditions: for FS CDK1/CDK2 / FS CDK4/CDK2: fold selectivity; for increased fold-selectivity CDK1/CDK2 over Comparator C: (+) sign after FS CDK1/CDK2; for increased fold-selectivity CDK4/CDK2 over Comparator C: (+) sign after FS CDK4/CDK2;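 on improvement in potency against CDK2 (Ki) over Comparator C: fold lower CDK2 Ki than comparator c (Ki 0.032 µM)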
T2 construct: purchased ProQinase 0050-0055-1
Outline: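 Kinase reaction buffer: 50 mM HEPES pH 7.5, 10 mM MgCl2, 2 mM TCEP, 0.05% BGG, 0.01% Brij 35, with 30 min compound–enzyme pre-incubation.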

[3] = biological target: T3, Cyclin Dependent Kinase 4/Cyclin D3 (CDK4-cycD3) (Homo sapiens, UniProt P11802); test: CDK4-cycD3 TR-FRET (LANCE) enzyme assay; type: biochemical; conditions: Table O, enzymatic assay
T3 construct: purchased Carna Biosciences 04-105
Outline: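 Compound dose responses pre-incubated 30 min with enzyme mix in 50 mM HEPES pH 7.5, 10 mM MgCl2, 2 mM TCEP, 0.05% BGG, 0.01% Brij 35. Reaction quenched with EDTA (15 mM final); Eu-anti-phospho-4E-BP1 TR-FRET detection, acceptor/donor ratio. Ki derived by Morrison equation.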

[4] = tested on: OVISE (JCRB1043, CCNE1-amplified); test: OVISE EdU incorporation cell proliferation assay (CDK2-dependent); type: cell-based; conditions: for IC50: cellular assay, read-out: CDK2 OVISE IC50; for FS SKOV-3/OVISE / FS p-H3/OVISE: fold selectivity; for FS p-H3/OVISE: cellular p-H3 IC50 over OVISE IC50; for increased fold-selectivity SKOV-3/OVISE over Comparator C: (+) sign after FS SKOV-3/OVISE; for improvement in CDK2 OVISE cell potency over Comparator C: in brackets after OVISE IC50, Comparator C 5.5 μM
Outline: (§1)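 EdU incorporation (0.5 μM final, last 8 h) follows a 16 h compound exposure at 37 °C, 5% CO2 in RPMI plus 10% FBS, 0.5% DMSO. After fixation, imaging scores EdU-positive cells; a 4-parameter logistic fit of that fraction gives IC50.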

[5] = tested on: SKOV-3 (ATCC HTB-77); test: SKOV-3 EdU incorporation cell proliferation assay (CDK4/6-dependent); type: cell-based; conditions: Homo sapiens, cellular assay, read-out: CDK4/6 SKOV-3 IC50
Outline: as §1

[6] = tested on: HCT116 cells; test: p-H3 HCT-116 mitotic release cell proliferation assay (cellular CDK1); type: cell-based; conditions: Homo sapiens, HCT-116; Table O, cellular assay; read-out: CDK1 p-H3 IC50
Outline: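 Phospho-Histone H3 (Ser10) in lysates was quantified by a two-antibody HTRF FRET read (≥2 h, room temperature). Before this, HCT116 cells held in mitosis by 16 h of 500 nM nocodazole were treated with compound for 4 h at 37 °C, 0.1% DMSO.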

[7] = Table O, enzymatic assay, read-out: CDK2 Ki
[8] = Table O, enzymatic CDK1 Ki over CDK2 Ki
[9] = Table O, enzymatic CDK4 Ki over CDK2 Ki
[10] = Table Q, enzymatic assay, read-out: CDK2 Ki
[11] = read-out: CDK2 activity / potency (enzymatic assay)
[12] = Table O, cellular SKOV-3 IC50 over OVISE IC50

T1 sequence (P06493 whole entry): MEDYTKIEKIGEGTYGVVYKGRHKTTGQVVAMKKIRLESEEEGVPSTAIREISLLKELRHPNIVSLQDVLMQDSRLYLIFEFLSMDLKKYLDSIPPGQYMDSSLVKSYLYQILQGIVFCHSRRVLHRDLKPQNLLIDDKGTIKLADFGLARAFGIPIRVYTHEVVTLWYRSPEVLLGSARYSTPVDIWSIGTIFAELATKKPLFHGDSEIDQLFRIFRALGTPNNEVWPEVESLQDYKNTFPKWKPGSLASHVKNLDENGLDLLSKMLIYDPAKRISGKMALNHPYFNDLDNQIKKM
T1 sequence (P20248 whole entry partner): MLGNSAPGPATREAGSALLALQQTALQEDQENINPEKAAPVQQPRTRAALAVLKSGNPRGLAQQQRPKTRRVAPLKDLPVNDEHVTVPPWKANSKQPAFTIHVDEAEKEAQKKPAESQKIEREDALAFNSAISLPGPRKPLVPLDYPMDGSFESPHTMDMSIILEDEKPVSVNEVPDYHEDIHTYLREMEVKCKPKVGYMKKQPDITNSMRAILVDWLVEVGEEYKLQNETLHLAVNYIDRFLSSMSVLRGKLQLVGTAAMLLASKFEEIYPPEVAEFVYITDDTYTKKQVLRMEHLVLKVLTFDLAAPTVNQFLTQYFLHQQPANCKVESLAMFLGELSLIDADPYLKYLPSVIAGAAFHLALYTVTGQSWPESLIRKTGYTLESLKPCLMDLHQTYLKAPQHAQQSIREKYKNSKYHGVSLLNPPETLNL
T3 sequence (P11802 whole entry): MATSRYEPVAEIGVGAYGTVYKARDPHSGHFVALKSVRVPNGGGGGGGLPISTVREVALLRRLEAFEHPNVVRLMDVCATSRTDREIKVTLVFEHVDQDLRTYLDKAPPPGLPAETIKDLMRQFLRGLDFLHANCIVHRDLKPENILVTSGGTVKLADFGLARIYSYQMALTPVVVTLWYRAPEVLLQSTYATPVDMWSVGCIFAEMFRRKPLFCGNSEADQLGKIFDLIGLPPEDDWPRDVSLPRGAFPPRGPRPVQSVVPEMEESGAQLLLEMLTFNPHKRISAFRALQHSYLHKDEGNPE
T3 sequence (P30281 whole entry partner): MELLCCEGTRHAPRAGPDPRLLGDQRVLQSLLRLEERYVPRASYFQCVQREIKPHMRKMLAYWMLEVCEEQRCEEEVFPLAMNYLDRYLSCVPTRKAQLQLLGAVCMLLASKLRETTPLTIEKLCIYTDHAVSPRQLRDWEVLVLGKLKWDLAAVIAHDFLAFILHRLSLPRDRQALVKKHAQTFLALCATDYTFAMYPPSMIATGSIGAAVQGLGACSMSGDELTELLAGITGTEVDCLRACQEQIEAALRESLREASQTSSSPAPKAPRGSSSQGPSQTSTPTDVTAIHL

Row | SMILES | Ki [1] [nM] | improvement in potency against CDK2 (Ki) over Comparator C [2] [fold] | Ki [2, 7] [nM] | FS CDK1/CDK2 [2, 8] | FS CDK4/CDK2 [2, 9] | increased fold-selectivity CDK1/CDK2 over Comparator C ([2]; Table Q) | increased fold-selectivity CDK4/CDK2 over Comparator C ([2]; Table Q) | Ki [2, 10] [nM] | FS CDK1/CDK2 ([2]; Table Q, enzymatic) | FS CDK4/CDK2 ([2]; Table Q, enzymatic) | Ki [3] [nM] | IC50 ([4]; Table O) [nM] | FS SKOV-3/OVISE [4, 12] | FS p-H3/OVISE ([4]; Table O) | increased fold-selectivity SKOV-3/OVISE over Comparator C ([4]; Table Q) | FS SKOV-3/OVISE ([4]; Table Q, cellular) | improvement in CDK2 OVISE cell potency over Comparator C ([4]; Table Q) [fold] | IC50 ([5]; SK-OV-3, Table O) [nM] | IC50 ([5]; SK-OV-3, Table Q) [nM] | IC50 [6] [nM] | also measured
1 | CC(C)NC(=O)O[C@@H]1CC[C@H](c2cc(Nc3cnccn3)n[nH]2)C1 [Example 2E, (1R,3S)-3-(3-(pyrazin-2-ylamino)-1H-pyrazol-5-yl)cyclopentyl isopropylcarbamate] | 8.4 | 246 | 0.13 | 65 | 57 | (+) (The (+) sign in Table Q signifies desirable increased fold-selectivity of the exemplary compounds over Comparator C) | (+) (The (+) sign in Table Q signifies desirable increased fold-selectivity of the exemplary compounds over Comparator C) | 0.13 | 65 | 57 | 7.4 | 16 | 8.1 | 0.88 | (+) (The (+) sign in Table Q signifies desirable increased fold-selectivity of the exemplary compounds over Comparator C) | 8.1 | 344 | 130 | 130 | 14 | Ki [2, 11]: ≤ 1 nM
2 | CC(C)NC(=O)O[C@@H]1CC[C@H](c2cc(Nc3ccc(-n4ccnc4)cn3)n[nH]2)C1 [Example 2EE, (1R,3S)-3-(3-((5-(1H-imidazol-1-yl)pyridin-2-yl)amino)-1H-pyrazol-5-yl)cyclopentyl isopropylcarbamate] | 290 | 10 | 3.2 | 91 | 59 | (+) (The (+) sign in Table Q signifies desirable increased fold-selectivity of the exemplary compounds over Comparator C) | (+) (The (+) sign in Table Q signifies desirable increased fold-selectivity of the exemplary compounds over Comparator C) | 3.2 | 91 | 59 | 190 | 340 | 29 | 2.6 | (+) (The (+) sign in Table Q signifies desirable increased fold-selectivity of the exemplary compounds over Comparator C) | 29 | 16 | 9700 | 9700 | 900 | –
3 | COc1nccc(Nc2cc([C@H]3CC[C@@H](OC(=O)NC(C)C)C3)[nH]n2)n1 [Example 2F, (1R,3S)-3-(3-((2-methoxypyrimidin-4-yl)amino)-1H-pyrazol-5-yl)cyclopenty1 isopropylcarbamate] | 11 | 78 | 0.41 | 21 | 270 | – | (+) (The (+) sign in Table Q signifies desirable increased fold-selectivity of the exemplary compounds over Comparator C) | 0.41 | 21 | 270 | 190 | 65 | 58 | 1.3 | (+) (The (+) sign in Table Q signifies desirable increased fold-selectivity of the exemplary compounds over Comparator C) | 58 | 84.6 | 3500 | 3500 | 76 | Ki [2, 11]: ≤ 1 nM
4 | CC(C)NC(=O)O[C@@H]1CC[C@H](c2cc(Nc3ccnc(N)n3)n[nH]2)C1 [Example 2G, (1R,3S)-3-(3-((2-aminopyrimidin-4-yl)amino)-1H-pyrazol-5-yl)cyclopentyl isopropylcarbamate] | 88 | 21 | 1.5 | 59 | 100 | (+) (The (+) sign in Table Q signifies desirable increased fold-selectivity of the exemplary compounds over Comparator C) | (+) (The (+) sign in Table Q signifies desirable increased fold-selectivity of the exemplary compounds over Comparator C) | 1.5 | 59 | 100 | 150 | 280 | 36 | 1.0 | (+) (The (+) sign in Table Q signifies desirable increased fold-selectivity of the exemplary compounds over Comparator C) | 36 | 19.6 | 10000 | 10000 | 280 | –
5 | CNc1nccc(Nc2cc([C@H]3CC[C@@H](OC(=O)NC(C)C)C3)[nH]n2)n1 [Example 2H, (1R,3S)-3-(3-((2-(methylamino)pyrimidin-4-yl)amino)-1H-pyrazol-5-yl)cyclopentyl isopropylcarbamate] | 7.5 | 114 | 0.28 | 27 | 64 | – | (+) (The (+) sign in Table Q signifies desirable increased fold-selectivity of the exemplary compounds over Comparator C) | 0.28 | 27 | 64 | 18 | 67 | 16 | 0.48 | (+) (The (+) sign in Table Q signifies desirable increased fold-selectivity of the exemplary compounds over Comparator C) | 16 | 82 | 1100 | 1100 | 32 | Ki [2, 11]: ≤ 1 nM
6 | CCn1nc(Nc2cc([C@H]3CC[C@@H](OC(=O)NC(C)C)C3)[nH]n2)ccc1=O [Example 2HH, (1R,3S)-3-(3-((1-ethyl-6-oxo-1,6-dihydropyridazin-3-y1)amino)-1H-pyrazol-5-y1)cyclopenty1 isopropylcarbamate] | 6.9 | – | 0.43 | 16 | 490 | – | – | – | – | – | 210 | 60 | 77 | 0.53 | – | – | – | 4600 | – | 32 | –
